Like-named read-outs stand apart in the source and are kept apart here.
What was measured:
[1] = Solvolysis in THF-CH3OH with CF3SO3H; assay type: physicochemical; details: 20 equiv CH3OH, 0.1 equiv CF3SO3H
Method: Solvolysis of N-BOC-CCBI in THF-CH3 OH. The solvolysis of N-BOC-CCBI (25) was carried out in THF with 20-500 equiv of CH3 OH in the presence of 0.1-0.25 equiv of CF3 SO3 H. The following is the procedure for the solvolysis of 25 in THF with 20 equiv of CH3 OH in the presence of CF3 SO3 H (0.1 equiv). A stock solution was prepared by addition of CF3 SO3 H (5.6 μL) and anhydrous CH3 OH (502 μL) to anhydrous THF (99.49 mL). A sample of 25 (100 μg) in a UV cell was dissolved in THF (1950 μL) and the THF stock solution (50 μL) which contained CF3 SO3 H (0.1 equiv) and CH3 OH (20 equiv) was added. The solvolysis solution was sealed and UV spectrum was measured with an automated cycle program at regular intervals (10 min/cycle). The decrease in the long wavelength absorption at 313 nm was monitored and the solvolysis was complete after 80 h.

[2] = Aqueous solvolysis reactivity followed by UV; assay type: physicochemical; details: for half-life: read-out: solvolysis half-life t1/2 (converted)
Method: The reactivity of 217-219 was assessed by following the solvolysis spectrophotometrically by UV at both pH 3 (50% CH3 OH-buffer, buffer=4:1:20 (v/v/v) 0.1 M citric acid, 0.2 M Na2 HPO4, H2 O) and pH 7 (1:1 H2 O--CH3 OH) measuring both the disappearance of the long-wavelength absorption band of the F2 CBI chromophore and the appearance of a short-wavelength absorption band attributable to the ring open products (FIG. 31).
Aqueous Solvolysis Reactivity. pH 3: N-BOC-CCBI (25, 100 μg) was dissolved in CH3 OH (1.5 mL) and mixed with pH 3 aqueous buffer (1.5 mL). The buffer contained 4:1:20 (v:v:v) 0.1 M citric acid, 0.2 M Na2 HPO4 and H2 O, respectively. The solvolysis solution was sealed and kept at 25° C. protected from light. The UV spectrum was measured at regular intervals every 2 h during the first day, every 12 h for another week, and every 24 h for an additional week. The decrease in the long-wavelength absorption at 322 nm and the increase in the short-wavelength absorption at 268 nm were monitored, FIG. 1.
pH 2: Samples of 25 (100 μg) and 26 (50 μg) were dissolved in CH3 OH (1.5 mL) and the solutions were mixed with aqueous buffer (pH 2.05, 1.5 mL). The buffer contained 4:1:20 (v:v:v) 1.0 M citric acid, 0.2 M Na2 HPO4, and H2 O, respectively. Immediately after mixing, the UV spectra of the solutions were measured against a reference solution containing CH3 OH (1.5 mL) and the aqueous buffer (1.5 mL) and these readings were used for the initial absorbance values. The solutions were stoppered, protected from the light, and allowed to stand at 25° C. UV spectra were recorded at regular intervals until constant values were obtained for the long and short wavelength absorbances. The solvolysis rate constants were determined from the slope of the lines obtained from linear least squares treatment of plots of ln[(Af -Ai)/(Af -A)] versus time using the short wavelength measurements for 25 and long wavelength measurements for 26).

[3] = pH 2 (buffer pH 2.05), CH3OH-buffer 1:1, 25° C.

## CC(C)(C)OC(=O)N1CC2CC23C1=CC(=O)c1ccc(C#N)cc13 (stereo not shown) [compound 25, N-(tert-Butyloxycarbonyl)-7-cyano-1,2,9,9a-tetrahydrocyclopropa[c]benz[e]indol-4-one]
[1]
  solvolysis half-life t1/2: 9.2 h
  solvolysis rate k: 2e-05 s⁻¹
  time to complete solvolysis: 80 h
[2]; [3]
  first order solvolysis rate constant: 7.94e-06 s⁻¹
  half-life: 24.2 h
[2]; pH 3, 50% CH3OH-buffer
  solvolysis rate constant k: 9.9e-07 s⁻¹
  half-life: 213 h

— patent US6060608A, “Analogs of CC-1065 and the duocarmycins” (The Scripps Research Institute, priority 1999, dated 2000)
